The values that follow come from patent publication US10753935B2, “Prognostic method and kits useful in said method” (Zelda Therapeutics Operations Pty Ltd, priority 2016, dated 2020).

In experiment [1] the target is T1, HER2-CB2 heteromers (Homo sapiens, UniProt P34972). Nature of the experiment: PLA and BRET assays of HER2-CB2 heteromers in BT474 cells. It counts as cell-based. Particulars: THC at concentrations that produce anti-tumor responses, previously reported by the applicants. As to the method:
(§1) As discussed in Example 1, we observed these effects using Proximity Ligation assays (PLAs) and Bioluminescence Resonance Energy Transfer (BRET) assays.
(§2) Cells were grown on glass coverslips and fixed in 4% paraformaldehyde, washed with PBS containing 20 mM glycine, permeabilized with the same buffer containing 0.05% Triton® X-100, and washed successively with PBS. HER2-CB2R heteromers were detected using the Duolink in situ Probemarker kit (Olink, Bioscience, Uppsala, Sweden). After 1 h of incubation at 37° C. with the blocking solution in a preheated humidity chamber, cells were incubated overnight in the antibody dilution medium with a mixture of equal amounts of rabbit anti-CB2 antibody (1:50, Cayman Chemical, Ann Arbor, Mich.) directly linked to a plus PLA probe, and rabbit anti-HER2 antibody (1:50, Santa Cruz Biotechnology, Santa Cruz, Calif., US) directly linked to a minus PLA probe. […] Amplification was done with the Duolink II detection reagents red kit, which contains fluorescence nucleotides. […] PLA requires that both receptors be close enough to allow the two different antibody-DNA probes to be able to ligate (<17 nm) ((Soderberg et al., (2008), Methods., 45: 227-232; Trifilieff et al., (2011), BioTechniques, 51: 111-118). If the receptors are within sufficient proximity, a punctate fluorescent signal can be detected by confocal microscopy.
(In general: BRET reads energy transfer from a luciferase to a nearby fluorophore.)

The test system of experiment [2] is HER2. Nature of the experiment: HER2 degradation in BT474 cells. In kind it is cell-based, human. Particulars: THC treatment, previously observed.
From the text: as §1
(§3) We have now confirmed this observation by Western blot in HCC1954 cells (FIG. 5).

The target of experiment [3] is T1, HER2-CB2 heteromers. Nature of the experiment: Co-immunoprecipitation of HER2 and CB2-HA in BT474 cells. It counts as cell-based. Conditions: BT474 cells transfected with CB2-HA; 3 μM THC for 4 h. As to the method:
(§4) FIG. 3. Western blot analysis of HER2 and CB2 in the indicated cell lines. Cells were transfected with a CB2-HA encoding plasmid and treated with THC for 4 h. HER2 was then immune-precipitated with an anti-HER2 antibody, and blots were developed with anti-HA antibodies.
(§5) HCC1954 and BT474 cells were transiently transfected with pcDNA3-HA-hCB2 or the corresponding empty vector (pcDNA3), using Fugene HD Transfection Reagent (Promega, Madison, Wis.). 48 h after transfection, cells were treated with 3 μM THC or the corresponding vehicle (DMSO) for 4 h, and lysed using a specific buffer for co-immunoprecipitation (40 mM Hepes pH 7.5, 120 mM NaCl, 1 mM EDTA, 10 mM sodium pyrophosphate, 10 mM sodium glycerophosphate, 50 mM sodium fluoride, 0.5 mM sodium orthovanadate, 0.3% CHAPS and supplemented with 1 mM benzamidine and 0.1 mM PMSF in fresh). Cell lysates (1 mg) were immunoprecipitated using 5 μg of anti-ErbB2 antibody (Neu C-18, Santa Cruz Biotechnology, Santa Cruz, Calif., US) covalently coupled to 5 μL protein G-sepharose. After immunoprecipitation, proteins were separated by SDS-10% polyacrylamide reducing gels and transferred to PVDF membranes. […] Bound antibodies were detected with a donkey anti-rabbit immunoglobulin G (IgG) peroxidase-labeled antibody (GE Healthcare, UK). […]

In experiment [4] the test system is HER2. Nature of the experiment: Western blot of HER2 in HCC1954 cells. In kind it is cell-based, human. Conditions: THC treatment. Here is the method: FIG. 5. Protein expression in HCC1954 cells. Protein expression analysis by Western blot of total and phosphorylated (i.e., activated) HER2 in response to THC.
as §3
HCC1954 cells were treated with RIPA buffer (50 mM Tris, 150 mM NaCl, 1% NP-40, 0.5% sodium deoxycholate, and 0.1% sodium dodecyl sulfate), containing a cocktail of protease inhibitors (pepstatin, leupeptin, aprotinin, quimostatin, antipain, and phenylmethylsulfonyl fluoride) and phosphatase inhibitors (Na3VO4 and NaF; Sigma Chemical Co., St. Louis, Mo.). Proteins separated by sodium dodecyl sulfate-10% polyacrylamide reducing gels were transferred to polyvinylidene difluoride membranes (Bio-Rad Laboratories, Hercules, Calif.). After blocking with 5% skim milk and 1% bovine serum albumin, membranes were incubated with the anti-ErbB2 antiserum (Santa Cruz Biotechnology, Santa Cruz, Calif.) diluted 1:500 for 3 h at room temperature. […] A chemiluminescence detection system (Amersham Pharmacia Biotech, Piscataway, N.J.) was used to reveal peroxidase. Controls were carried out with an anti-actin monoclonal antibody (MAb; Boehringer Mannheim, Indianapolis, Ind.) diluted 1:5,000 followed by an anti-mouse IgG peroxidase-labeled antibody diluted 1:4,000 (Zymed).
(In western blotting, separated proteins are transferred to a membrane and probed.)

A further experiment concerns HER2-HER2 dimers. Nature of the experiment: In situ proximity ligation assay of HER2-HER2 dimers in HCC1954 cells. In kind it is cell-based, human. Particulars: THC treatment. Here is the method: FIG. 6. HER2-HER2 dimer expression in HCC1954 cells. Representative images of the PLA experiments, in response to the indicated treatments.
as §2

Experiment [5] addresses T1, HER2-CB2 heteromers. Nature of the experiment: Co-immunoprecipitation of HER2 and CB2-HA in HCC1954 cells. In kind it is cell-based. Details: HER2-CB2 heteromer expression in HCC1954 cells; endogenous in cells; host or cells: HCC1954. Particulars: HCC1954 cells transfected with CB2-HA; 3 μM THC for 4 h. Here is the method:
as §4, §5

In experiment [6] the target is T1, HER2-CB2 heteromers. Nature of the experiment: In situ proximity ligation assay of HER2-CB2 heteromers in HCC1954 cells. In kind it is cell-based. Details: HER2-CB2 heteromer expression in HCC1954 cells; endogenous in cells; host or cells: HCC1954. Particulars: THC treatment.
Procedure: HER2-CB2 heteromer expression in HCC1954 cells. Representative images of the PLA experiments, in response to the indicated treatments.
Cells were grown on glass coverslips and fixed in 4% paraformaldehyde, washed with PBS containing 20 mM glycine, permeabilized with the same buffer containing 0.05% Triton® X-100, and washed successively with PBS. HER2-CB2R heteromers were detected using the Duolink in situ Probemarker kit (Olink, Bioscience, Uppsala, Sweden). After 1 h of incubation at 37° C. with the blocking solution in a preheated humidity chamber, cells were incubated overnight in the antibody dilution medium with a mixture of equal amounts of rabbit anti-CB2 antibody (1:50, Cayman Chemical, Ann Arbor, Mich.) directly linked to a plus PLA probe, and rabbit anti-HER2 antibody (1:50, Santa Cruz Biotechnology, Santa Cruz, Calif., US) directly linked to a minus PLA probe. Cells were washed with wash buffer A at room temperature and incubated in a preheated humidity chamber for 30 min at 37° C. with the ligation solution (Duolink® II ligation stock, 1:5, and Duolink II ligase, 1:40) to induce annealing and ligation of the two DNA probes. Amplification was done with the Duolink II detection reagents red kit, which contains fluorescence nucleotides. After exhaustive washing at room temperature with wash buffer B, cells were mounted using mounting medium with DAPI. […]

Each structure is given as a SMILES string.

T1 sequence (P34972 whole entry, one chain of several): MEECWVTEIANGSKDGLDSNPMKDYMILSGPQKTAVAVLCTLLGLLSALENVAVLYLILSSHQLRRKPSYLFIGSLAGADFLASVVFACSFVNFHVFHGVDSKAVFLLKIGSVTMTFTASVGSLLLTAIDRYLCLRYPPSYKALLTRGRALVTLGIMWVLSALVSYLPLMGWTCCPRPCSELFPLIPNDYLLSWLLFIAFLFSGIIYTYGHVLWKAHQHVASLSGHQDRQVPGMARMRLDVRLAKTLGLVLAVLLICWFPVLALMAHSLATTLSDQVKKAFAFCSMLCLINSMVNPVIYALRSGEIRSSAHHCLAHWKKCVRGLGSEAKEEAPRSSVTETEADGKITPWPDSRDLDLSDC

Regarding `CCCCCc1cc(O)c2c(c1)OC(C)(C)[C@@H]1CCC(C)=C[C@@H]21` [THC, Δ^9-tetrahydrocannabinol], the “effect on HER2-CB2 heteromers (PLA, BRET)” value on HER2-CB2 heteromers [1] is “disrupts HER2-CB2 heteromers”. Moreover, the “effect on HER2 protein level” value with HER2 [2] is given as “degradation of HER2”. For the same molecule, the “effect on HER2-CB2 heteromers (co-IP)” value on HER2-CB2 heteromers [3] and at HER2-CB2 heteromers [5] was “disrupts HER2-CB2 heteromers” throughout. In the experiment on HER2 [4], the “effect on HER2 protein level (Western blot)” value is reported as “degradation of HER2”. For the same molecule, the “effect on HER2-HER2 dimers (PLA)” value with HER2-HER2 dimers is listed as “disrupts not only HER2-CB2 but also HER2-HER2 dimers”. Besides, the “effect on HER2-CB2 heteromers (PLA)” value at HER2-CB2 heteromers [6] is on record as “breaks the heteromers by acting on CB2”.
